In patent US10669240B2, “5-substituted indazole-3-carboxamides and preparation and use thereof” (Samumed, LLC, priority 2014, dated 2020):
Blank lines part the entries; values can stand above or below the compound they belong to.

Tests used:
[1] = test system: Wnt activity (Wnt-responsive SP5 promoter luciferase reporter in SW480 cells); test: Wnt activity reporter assay: SW480 cells with SP5 promoter-driven firefly luciferase; assay type: cell-based; conditions: Homo sapiens, 24 h after compound addition, read-out: Wnt inhibition
Source text: The above synthesized compounds were screened using the assay procedure for Wnt activity described below.
Reporter cell lines were generated by stably transducing cells of cancer cell lines (e.g., colon cancer) with a lentiviral construct that include a Wnt-responsive promoter driving expression of the firefly luciferase gene.
Lentiviral constructs were made in which the SP5 promoter, a promoter having eight TCF/LEF binding sites derived from the SP5 promoter, was linked upstream of the firefly luciferase gene. The lentiviral constructs included a hygromycin resistance gene as a selectable marker. The SP5 promoter construct was used to transduce SW480 cells, a colon cancer cell line having a mutated APC gene that generates a truncated APC protein, leading to de-regulated accumulation of β-catenin.
Cultured SW480 cells bearing a reporter construct were distributed at approximately 10,000 cells per well into 384 well multiwell plates. Compounds were then added to the wells in half-log dilutions using a three micromolar top concentration. A series of control wells for each cell type received only buffer and compound solvent. Twenty-four hours after the addition of compound, reporter activity for luciferases was assayed, for example, by addition of the BrightGlo luminescence reagent (Promega) and the Victor3 plate reader (Perkin Elmer). Readings were normalized to DMSO only treated cells, and normalized activities were then used for the IC50 calculations.

DYRK1A = DYRK1A (Homo sapiens (Human), UniProt Q13627); test: DYRK1A activity Tau assay: pSer396 Tau in SH-SY5Y cells by ELISA / western blot; assay type: cell-based; conditions: overnight (16-18 h) exposure

Structure (SMILES): CN(C(=O)c1n[nH]c2ccc(-c3cncc(CN4CCCCC4)c3)cc12)c1cccnc1 [Compound 76, N-Methyl-5-(5-(piperidin-1-ylmethyl)pyridin-3-yl)-N-(pyridin-3-yl)-1H-indazole-3-carboxamide]
IC50 [1]: 6500 nM | EC50 (DYRK1A): 990 nM

Structure (SMILES): O=C(Nc1cccc2cccnc12)c1n[nH]c2ccc(-c3cncc(CN4CCCCC4)c3)cc12 [Compound 81, 5-(5-(Piperidin-1-ylmethyl)pyridin-3-yl)-N-(quinolin-8-yl)-1H-indazole-3-carboxamide]
IC50 [1]: 7660 nM | EC50 (DYRK1A): 312 nM

Structure (SMILES): NC(=O)c1n[nH]c2ccc(-c3cncc(CN4CCCCC4)c3)cc12 [Compound 89, 5-(5-(Piperidin-1-ylmethyl)pyridin-3-yl)-1H-indazole-3-carboxamide]
IC50 [1]: 1960 nM | EC50 (DYRK1A): 6 nM

Structure (SMILES): CN1CCC(NC(=O)c2n[nH]c3ccc(-c4cncc(C(F)(F)F)c4)cc23)CC1 [Compound 95, N-(1-Methylpiperidin-4-yl)-5-(5-(trifluoromethyl)pyridin-3-yl)-1H-indazole-3-carboxamide]
IC50 [1]: 1070 nM | EC50 (DYRK1A): 261 nM

Structure (SMILES): O=C(Nc1cccnc1)c1n[nH]c2ccc(-c3cccc(F)c3F)cc12 [Compound 96, 5-(2,3-Difluorophenyl)-N-(pyridin-3-yl)-1H-indazole-3-carboxamide]
IC50 [1]: 4670 nM | EC50 (DYRK1A): 134 nM

Structure (SMILES): O=C(NC1CCNCC1)c1n[nH]c2ccc(-c3cccc(F)c3F)cc12 [Compound 254, 5-(2,3-Difluorophenyl)-N-(piperidin-4-yl)-1H-indazole-3-carboxamide]
IC50 [1]: 7900 nM | EC50 (DYRK1A): 66 nM

Structure (SMILES): CN1CCC(NC(=O)c2n[nH]c3ccc(-c4cc(CN5CCCCC5)cc(F)c4F)cc23)CC1 [Compound 272, 5-(2,3-Difluoro-5-(piperidin-1-ylmethyl)phenyl)-N-(1-methylpiperidin-4-yl)-1H-indazole-3-carboxamide]
IC50 [1]: 1700 nM | EC50 (DYRK1A): 15 nM

Structure (SMILES): CC(C)(C)N1CCC(NC(=O)c2n[nH]c3ccc(-c4cccnc4)cc23)CC1 [Compound 291, N-(1-(tert-Butyl)piperidin-4-yl)-5-(pyridin-3-yl)-1H-indazole-3-carboxamide]
IC50 [1]: 1010 nM | EC50 (DYRK1A): 21 nM

Structure (SMILES): CC(C)(C)CN1CCC(NC(=O)c2n[nH]c3ccc(-c4cccnc4)cc23)CC1 [Compound 329, N-(1-Neopentylpiperidin-4-yl)-5-(pyridin-3-yl)-1H-indazole-3-carboxamide]
IC50 [1]: 4650 nM | EC50 (DYRK1A): 7 nM

Structure (SMILES): O=C(NC1CCN(CCF)CC1)c1n[nH]c2ccc(-c3cccc(F)c3F)cc12 [Compound 1160, 5-(2,3-Difluorophenyl)-N-(1-(2-fluoroethyl)piperidin-4-yl)-1H-indazole-3-carboxamide]
IC50 [1]: 1100 nM | EC50 (DYRK1A): 40 nM

Structure (SMILES): O=C(NC1CCN(C2COC2)CC1)c1n[nH]c2ccc(-c3cccc(F)c3F)cc12 [Compound 1164, 5-(2,3-Difluorophenyl)-N-(1-(oxetan-3-yl)piperidin-4-yl)-1H-indazole-3-carboxamide]
IC50 [1]: 1400 nM | EC50 (DYRK1A): 49 nM

Structure (SMILES): O=C(NCCN1CCCC1)c1n[nH]c2ccc(-c3cccc(F)c3F)cc12 [Compound 1166, 5-(2,3-Difluorophenyl)-N-(2-(pyrrolidin-1-yl)ethyl)-1H-indazole-3-carboxamide]
IC50 [1]: 2400 nM | EC50 (DYRK1A): 79 nM

Structure (SMILES): CN(C)CCNC(=O)c1n[nH]c2ccc(-c3cccnc3)cc12 [Compound 1259, N-(2-(Dimethylamino)ethyl)-5-(pyridin-3-yl)-1H-indazole-3-carboxamide]
IC50 [1]: 1800 nM | EC50 (DYRK1A): 20 nM

Structure (SMILES): CC(C)OCCCNC(=O)c1n[nH]c2ccc(-c3cccnc3)cc12 [Compound 1261, N-(3-Isopropoxypropyl)-5-(pyridin-3-yl)-1H-indazole-3-carboxamide]
IC50 [1]: 1000 nM | EC50 (DYRK1A): 5 nM

Structure (SMILES): Cc1ccc(-c2ccc3[nH]nc(C(=O)NCCCOC(C)C)c3c2)cn1 [Compound 1262, N-(3-Isopropoxypropyl)-5-(6-methylpyridin-3-yl)-1H-indazole-3-carboxamide]
IC50 [1]: 1800 nM | EC50 (DYRK1A): 60 nM

Structure (SMILES): CC(C)OCCCNC(=O)c1n[nH]c2ccc(-c3cccc(F)c3F)cc12 [Compound 1264, 5-(2,3-Difluorophenyl)-N-(3-isopropoxypropyl)-1H-indazole-3-carboxamide]
IC50 [1]: 2100 nM | EC50 (DYRK1A): 263 nM

Structure (SMILES): O=C(NCCN1CCCCC1)c1n[nH]c2ccc(-c3cccnc3)cc12 [Compound 1265, N-(2-(Piperidin-1-yl)ethyl)-5-(pyridin-3-yl)-1H-indazole-3-carboxamide]
IC50 [1]: 1200 nM | EC50 (DYRK1A): 17 nM

Structure (SMILES): O=C(NCCN1CCOCC1)c1n[nH]c2ccc(-c3cccnc3)cc12 [Compound 1267, N-(2-Morpholinoethyl)-5-(pyridin-3-yl)-1H-indazole-3-carboxamide]
IC50 [1]: 1500 nM | EC50 (DYRK1A): 5 nM

Structure (SMILES): CN1CC(NC(=O)c2n[nH]c3ccc(-c4cccc(F)c4F)cc23)C1 [Compound 1272, 5-(2,3-Difluorophenyl)-N-(1-methylazetidin-3-yl)-1H-indazole-3-carboxamide]
IC50 [1]: 2200 nM | EC50 (DYRK1A): 56 nM

Structure (SMILES): CC(C)CN1CC(NC(=O)c2n[nH]c3ccc(-c4cncc(Cl)c4)cc23)C1 [Compound 1273, 5-(5-Chloropyridin-3-yl)-N-(1-isobutylazetidin-3-yl)-1H-indazole-3-carboxamide]
IC50 [1]: 3300 nM | EC50 (DYRK1A): 23 nM

Structure (SMILES): CC(C)CN1CC(NC(=O)c2n[nH]c3ccc(-c4cncc(C(F)F)c4)cc23)C1 [Compound 1274, 5-(5-(Difluoromethyl)pyridin-3-yl)-N-(1-isobutylazetidin-3-yl)-1H-indazole-3-carboxamide]
IC50 [1]: 1200 nM | EC50 (DYRK1A): 20 nM

Structure (SMILES): CC(C)CN1CC(NC(=O)c2n[nH]c3ccc(-c4cncc(F)c4)cc23)C1 [Compound 1275, 5-(5-Fluoropyridin-3-yl)-N-(1-isobutylazetidin-3-yl)-1H-indazole-3-carboxamide]
IC50 [1]: 2700 nM | EC50 (DYRK1A): 28 nM

Structure (SMILES): CN1CCC2(CC1)CC(NC(=O)c1n[nH]c3ccc(-c4cncc(Cl)c4)cc13)C2 [Compound 1276, 5-(5-Chloropyridin-3-yl)-N-(7-methyl-7-azaspiro[3.5]nonan-2-yl)-1H-indazole-3-carboxamide]
IC50 [1]: 5200 nM | EC50 (DYRK1A): 7 nM

Structure (SMILES): CN1CCC2(CC1)CC(NC(=O)c1n[nH]c3ccc(-c4cccc(F)c4F)cc13)C2 [Compound 1278, 5-(2,3-Difluorophenyl)-N-(7-methyl-7-azaspiro[3.5]nonan-2-yl)-1H-indazole-3-carboxamide]
IC50 [1]: 5500 nM | EC50 (DYRK1A): 14 nM

Structure (SMILES): O=C(NC1CCC(F)(F)CC1)c1n[nH]c2ccc(-c3cccnc3)cc12 [Compound 1283, N-(4,4-Difluorocyclohexyl)-5-(pyridin-3-yl)-1H-indazole-3-carboxamide]
IC50 [1]: 1300 nM | EC50 (DYRK1A): 2 nM

IC50 [1]: > 10000 nM | EC50 (DYRK1A): 35 nM
Structure (SMILES): N[C@H]1CC[C@@H](NC(=O)c2n[nH]c3ccc(-c4cccnc4)cc23)CC1 [Compound 1285, N-((1s,4s)-4-Aminocyclohexyl)-5-(pyridin-3-yl)-1H-indazole-3-carboxamide]

Structure (SMILES): N[C@H]1CC[C@H](NC(=O)c2n[nH]c3ccc(-c4cccnc4)cc23)CC1 [Compound 1286, N-((1r,4r)-4-Aminocyclohexyl)-5-(pyridin-3-yl)-1H-indazole-3-carboxamide]
IC50 [1]: 3700 nM | EC50 (DYRK1A): 2 nM

IC50 [1]: > 10000 nM | EC50 (DYRK1A): 37 nM
Structure (SMILES): CN(C)[C@H]1CC[C@@H](NC(=O)c2n[nH]c3ccc(-c4cccnc4)cc23)CC1 [Compound 1287, N-((1s,4s)-4-(Dimethylamino)cyclohexyl)-5-(pyridin-3-yl)-1H-indazole-3-carboxamide]

Structure (SMILES): CN(C)[C@H]1CC[C@H](NC(=O)c2n[nH]c3ccc(-c4cccnc4)cc23)CC1 [Compound 1288, N-((1r,4r)-4-(Dimethylamino)cyclohexyl)-5-(pyridin-3-yl)-1H-indazole-3-carboxamide]
IC50 [1]: 1370 nM | EC50 (DYRK1A): 1 nM

Structure (SMILES): CCN1CCC(NC(=O)c2n[nH]c3cc(F)c(-c4cncc5ccccc45)cc23)CC1 [Compound 1293, N-(1-Ethylpiperidin-4-yl)-6-fluoro-5-(isoquinolin-4-yl)-1H-indazole-3-carboxamide]
IC50 [1]: 2130 nM | EC50 (DYRK1A): 210 nM

Structure (SMILES): O=C(NC1CCN(CCF)CC1)c1n[nH]c2ccc(-c3cncc4ccccc34)cc12 [Compound 1297, N-(1-(2-Fluoroethyl)piperidin-4-yl)-5-(isoquinolin-4-yl)-1H-indazole-3-carboxamide]
IC50 [1]: 2200 nM | EC50 (DYRK1A): 30 nM

Structure (SMILES): O=C(NC1CCN(CC(F)F)CC1)c1n[nH]c2ccc(-c3cncc(F)c3)cc12 [Compound 1298, N-(1-(2,2-Difluoroethyl)piperidin-4-yl)-5-(5-fluoropyridin-3-yl)-1H-indazole-3-carboxamide]
IC50 [1]: 1200 nM | EC50 (DYRK1A): 28 nM

Structure (SMILES): CC(C)(F)CN1CCC(NC(=O)c2n[nH]c3ccc(-c4cccnc4)cc23)CC1 [Compound 1309, N-(1-(2-Fluoro-2-methylpropyl)piperidin-4-yl)-5-(pyridin-3-yl)-1H-indazole-3-carboxamide]
IC50 [1]: 2260 nM | EC50 (DYRK1A): 7 nM

Structure (SMILES): O=C(NC1CCN(CC2CC2)CC1)c1n[nH]c2ccc(-c3cncc(Cl)c3)cc12 [Compound 1313, 5-(5-Chloropyridin-3-yl)-N-(1-(cyclopropylmethyl)piperidin-4-yl)-1H-indazole-3-carboxamide]
IC50 [1]: 1800 nM | EC50 (DYRK1A): 33 nM
